Assays:
Assay in all cases: relative viability (nuclei count vs DMSO), 5 days (fraction); higher = more cells survive
17-AAG + Pemetrexed = compound: C=CCNC1=C2C[C@@H](C)C[C@H](OC)[C@H](O)[C@@H](C)/C=C(\C)[C@H](OC(N)=O)[C@@H](OC)/C=C\C=C(/C)C(=O)NC(=CC1=O)C2=O [17-AAG] + Nc1nc2[nH]cc(CCc3ccc(C(=O)N[C@@H](CCC(=O)O)C(=O)O)cc3)c2c(=O)[nH]1 [Pemetrexed] (partner 0.2 µM)
How it was run: (§1)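 Dosing by pin tool came one day after lung cancer cell lines were seeded in 1536-well plates, using either one drug or a fixed anchor-drug dose plus five library-drug doses (not always all listed) in √10 steps. After 5 days, nuclei were counted on 4× images. Relative viability is treated-well nuclei count divided by vehicle-well nuclei count, and values are medians of duplicate plates.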

17-AAG + OSI-027 = compound: C=CCNC1=C2C[C@@H](C)C[C@H](OC)[C@H](O)[C@@H](C)/C=C(\C)[C@H](OC(N)=O)[C@@H](OC)/C=C\C=C(/C)C(=O)NC(=CC1=O)C2=O [17-AAG] + COc1cccc2cc(-c3nc([C@H]4CC[C@H](C(=O)O)CC4)n4ncnc(N)c34)[nH]c12 [OSI-027] (partner 0.5 µM)
How it was run: as §1

17-AAG + Foretinib = compound: C=CCNC1=C2C[C@@H](C)C[C@H](OC)[C@H](O)[C@@H](C)/C=C(\C)[C@H](OC(N)=O)[C@@H](OC)/C=C\C=C(/C)C(=O)NC(=CC1=O)C2=O [17-AAG] + COc1cc2c(Oc3ccc(NC(=O)C4(C(=O)Nc5ccc(F)cc5)CC4)cc3F)ccnc2cc1OCCCN1CCOCC1 [Foretinib] (partner 0.25 µM)
How it was run: as §1

17-AAG + AZD7762 = compound: C=CCNC1=C2C[C@@H](C)C[C@H](OC)[C@H](O)[C@@H](C)/C=C(\C)[C@H](OC(N)=O)[C@@H](OC)/C=C\C=C(/C)C(=O)NC(=CC1=O)C2=O [17-AAG] + NC(=O)Nc1cc(-c2cccc(F)c2)sc1C(=O)N[C@H]1CCCNC1 [AZD7762] (partner 0.2 µM)
How it was run: as §1

Cell Line | relative viability (17-AAG + Pemetrexed; first compound 0.00128 µM) | relative viability (17-AAG + Pemetrexed; first compound 0.004048 µM) | relative viability (17-AAG + Pemetrexed; first compound 0.0128 µM) | relative viability (17-AAG + Pemetrexed; first compound 0.04048 µM) | relative viability (17-AAG + Pemetrexed; first compound 0.128 µM) | relative viability (17-AAG + OSI-027; first compound 0.00128 µM) | relative viability (17-AAG + OSI-027; first compound 0.004048 µM) | relative viability (17-AAG + OSI-027; first compound 0.0128 µM) | relative viability (17-AAG + OSI-027; first compound 0.128 µM) | relative viability (17-AAG + Foretinib; first compound 0.00128 µM) | relative viability (17-AAG + Foretinib; first compound 0.004048 µM) | relative viability (17-AAG + Foretinib; first compound 0.0128 µM) | relative viability (17-AAG + Foretinib; first compound 0.128 µM) | relative viability (17-AAG + AZD7762; first compound 0.00128 µM) | relative viability (17-AAG + AZD7762; first compound 0.004048 µM) | relative viability (17-AAG + AZD7762; first compound 0.0128 µM) | relative viability (17-AAG + AZD7762; first compound 0.04048 µM) | relative viability (17-AAG + AZD7762; first compound 0.128 µM) | relative viability (17-AAG + OSI-027; first compound 0.04048 µM) | relative viability (17-AAG + Foretinib; first compound 0.04048 µM)
PC-3 [JPC-3] | 1.23 | 1.12 | 1.18 | 0.491 | 0.85 | 0.729 | 0.787 | 0.851 | 0.653 | 0.981 | 1.04 | 1.01 | 0.885 | 0.776 | 0.8 | 0.888 | 0.541 | 0.59 |  | 
NCI-H2342 | 0.803 | 0.854 | 0.782 | 0.589 | 0.39 | 0.552 | 0.716 | 0.584 | 0.425 | 0.97 | 1.04 | 0.968 | 0.374 | 0.441 | 0.739 | 0.468 | 0.447 | 0.359 | 0.504 | 0.846
A-427 | 0.974 | 0.961 | 0.97 | 0.321 | 0.265 | 0.484 | 0.502 | 0.502 | 0.181 | 1.11 | 0.983 | 1.05 | 0.847 | 0.819 | 0.798 | 0.618 | 0.268 | 0.234 | 0.343 | 1.2
H3255 | 0.578 | 0.6 | 0.531 | 0.287 | 0.267 | 0.569 | 0.576 | 0.49 | 0.268 | 0.943 | 0.874 | 0.819 | 0.249 | 0.876 | 1 | 0.674 | 0.252 | 0.245 | 0.274 | 0.252
NCI-H1734 | 0.4 | 0.474 | 0.475 | 0.261 | 0.161 | 0.602 | 0.709 | 0.415 | 0.144 | 0.895 | 0.951 | 0.856 | 0.18 | 0.547 | 0.53 | 0.268 | 0.214 | 0.131 | 0.263 | 0.282
NCI-H1993 | 0.65 | 0.649 | 0.437 | 0.298 | 0.323 | 0.586 | 0.636 | 0.593 | 0.41 | 0.83 | 0.846 | 0.826 | 0.466 | 0.936 | 0.644 | 0.325 | 0.339 | 0.248 | 0.394 | 0.516
NCI-H1437 | 0.348 | 0.37 | 0.246 | 0.214 | 0.154 | 0.877 | 0.836 | 0.656 | 0.123 | 1.21 | 1.22 | 1.09 | 0.193 | 1.1 | 1.07 | 0.651 | 0.271 | 0.201 | 0.186 | 0.259
NCI-H2347 | 0.426 | 0.463 | 0.517 | 0.376 | 0.331 | 0.323 | 0.395 | 0.464 | 0.201 |  | 1.03 | 0.859 | 0.413 | 0.891 | 0.578 | 0.472 | 0.26 | 0.22 | 0.241 | 0.35
201T | 0.317 | 0.342 | 0.361 | 0.23 | 0.213 | 0.823 | 1.01 | 0.443 | 0.165 | 1.11 | 1.06 | 0.503 | 0.175 | 0.626 | 0.543 | 0.459 | 0.258 | 0.261 | 0.165 | 0.194
NCI-H358 | 0.156 | 0.19 | 0.126 | 0.0833 | 0.0832 | 0.768 | 0.41 | 0.0521 | 0.0417 | 0.669 | 0.397 | 0.0697 | 0.0542 | 0.522 | 0.381 | 0.132 | 0.142 | 0.139 | 0.0586 | 0.0813
ChaGo-K-1 | 0.25 | 0.276 | 0.264 | 0.253 | 0.204 | 0.514 | 0.71 | 0.51 | 0.16 | 0.916 | 0.829 | 0.851 | 0.313 | 0.843 | 0.871 | 0.861 | 0.449 | 0.217 | 0.24 | 0.861
LOU-NH91 | 0.392 | 0.371 | 0.304 | 0.302 | 0.371 | 0.666 | 0.618 | 0.443 | 0.316 | 0.868 | 0.727 | 0.633 | 0.279 | 0.765 | 0.71 | 0.444 | 0.382 | 0.347 | 0.359 | 0.36
HOP-62 | 0.409 | 0.314 | 0.271 | 0.127 | 0.109 | 0.879 | 0.806 | 0.6 | 0.112 | 1.16 | 1.05 | 0.858 | 0.382 | 0.733 | 0.416 | 0.256 | 0.11 | 0.0928 | 0.44 | 0.549
NCI-H1915 | 0.521 | 0.462 | 0.422 | 0.191 | 0.057 | 0.606 | 0.605 | 0.482 | 0.0931 | 1.09 | 1.06 | 1.12 | 0.271 | 0.587 | 0.719 | 0.219 | 0.12 | 0.0582 | 0.088 | 1.06
NCI-H322M | 0.659 | 0.652 | 0.42 | 0.348 | 0.366 | 0.465 | 0.364 | 0.329 | 0.271 | 0.971 | 1.04 | 0.577 | 0.323 | 0.633 | 0.415 | 0.405 | 0.382 | 0.413 | 0.285 | 0.306
NCI-H1651 | 0.635 | 0.605 | 0.585 | 0.536 | 0.173 | 0.749 | 0.685 | 0.683 | 0.143 | 0.788 | 0.664 | 0.423 | 0.161 | 0.463 | 0.512 | 0.482 | 0.364 | 0.136 | 0.395 | 0.15

Reference: the supplement of paper PMC10307832
